We go through 13 compounds from US8404728B2 (priority 2009, dated 2013).

One series has as its target BoNTAe (Clostridium botulinum, UniProt P0DPI0). Nature of the series: biochemical. The note with it: for inhibition at 1 µM: read-out: % inhibition of BoNTAe; for inhibition at 20 µM: inhibitor concentration 20 μM.
The target of series [1] is botulinum neurotoxin serotype A (Clostridium botulinum, UniProt P0DPI0). The arrangement: species or system Balb/c mice. Conditions: mouse, in vivo, ip.
For series [2] the following is noted: mouse, in vivo, ip, 2 mg/kg; for AUClast / Cmax / Vd: Balb/c.
A short description of another series: in vivo. The note with it: Balb/c, mouse, ip, 2 mg/kg.

Where a name gives a salt, the structure may show the parent alone. Read-outs that look alike come from different tables or passages of the source.

Chain of BoNTAe (P0DPI0 2-448 limits assumed): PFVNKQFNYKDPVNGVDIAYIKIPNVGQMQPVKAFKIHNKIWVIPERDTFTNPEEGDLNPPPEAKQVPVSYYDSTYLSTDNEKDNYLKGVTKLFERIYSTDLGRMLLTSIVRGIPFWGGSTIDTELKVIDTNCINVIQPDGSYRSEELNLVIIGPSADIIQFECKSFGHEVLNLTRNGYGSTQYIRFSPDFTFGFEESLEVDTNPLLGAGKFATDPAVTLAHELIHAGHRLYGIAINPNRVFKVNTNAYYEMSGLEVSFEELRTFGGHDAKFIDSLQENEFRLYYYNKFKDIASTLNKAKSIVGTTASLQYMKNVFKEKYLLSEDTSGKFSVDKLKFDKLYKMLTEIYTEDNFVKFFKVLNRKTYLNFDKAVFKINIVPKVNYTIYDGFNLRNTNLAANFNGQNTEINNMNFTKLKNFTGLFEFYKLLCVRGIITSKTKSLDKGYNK
Chain of botulinum neurotoxin serotype A (P0DPI0 whole entry, looked up): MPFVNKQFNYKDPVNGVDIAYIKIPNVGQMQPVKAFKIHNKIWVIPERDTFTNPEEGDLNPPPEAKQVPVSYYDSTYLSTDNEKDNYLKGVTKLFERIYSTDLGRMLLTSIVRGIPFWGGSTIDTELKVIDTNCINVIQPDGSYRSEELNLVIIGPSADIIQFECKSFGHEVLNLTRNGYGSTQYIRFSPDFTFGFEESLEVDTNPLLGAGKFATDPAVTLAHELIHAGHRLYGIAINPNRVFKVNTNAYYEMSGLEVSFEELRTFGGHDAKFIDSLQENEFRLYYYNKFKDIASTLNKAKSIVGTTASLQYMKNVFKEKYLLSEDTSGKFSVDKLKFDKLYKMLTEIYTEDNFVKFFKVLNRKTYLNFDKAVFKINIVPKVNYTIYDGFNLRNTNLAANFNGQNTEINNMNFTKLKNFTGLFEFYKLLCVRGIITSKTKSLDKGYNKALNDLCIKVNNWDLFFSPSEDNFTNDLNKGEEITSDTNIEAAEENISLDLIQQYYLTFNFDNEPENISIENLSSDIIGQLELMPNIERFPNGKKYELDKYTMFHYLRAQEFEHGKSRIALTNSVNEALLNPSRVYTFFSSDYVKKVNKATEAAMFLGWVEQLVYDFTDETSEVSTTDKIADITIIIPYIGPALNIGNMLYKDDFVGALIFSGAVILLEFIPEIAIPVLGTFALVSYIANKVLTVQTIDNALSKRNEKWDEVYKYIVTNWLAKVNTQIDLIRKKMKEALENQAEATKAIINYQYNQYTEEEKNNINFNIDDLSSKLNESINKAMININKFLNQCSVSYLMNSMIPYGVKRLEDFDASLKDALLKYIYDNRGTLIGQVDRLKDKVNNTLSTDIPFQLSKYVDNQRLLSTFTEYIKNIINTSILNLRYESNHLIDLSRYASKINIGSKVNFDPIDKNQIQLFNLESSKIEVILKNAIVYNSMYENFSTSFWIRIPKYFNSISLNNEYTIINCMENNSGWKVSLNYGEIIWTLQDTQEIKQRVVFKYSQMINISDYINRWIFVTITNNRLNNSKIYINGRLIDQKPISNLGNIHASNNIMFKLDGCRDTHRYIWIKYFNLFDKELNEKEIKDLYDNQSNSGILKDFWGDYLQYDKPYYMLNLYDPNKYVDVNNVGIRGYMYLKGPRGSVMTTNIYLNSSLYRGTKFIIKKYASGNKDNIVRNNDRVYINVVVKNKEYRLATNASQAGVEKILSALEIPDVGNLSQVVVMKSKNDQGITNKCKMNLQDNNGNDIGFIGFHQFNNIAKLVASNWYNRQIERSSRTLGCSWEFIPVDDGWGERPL

In the case of `NCCCCCCCCCCCCN(CCCCCCCCCCCCN)C(=O)c1ccc(-c2cc3ccc(C(=O)c4cc(CC(=O)NO)c(-c5cccc(O)c5)s4)cc3n2CCCCN)cc1` [Inhibitor E1e], at BoNTAe, affinity was put at a Ki of 360 nM and the inhibition at 1 µM stood at 49%.
For `NCCCCCCCCCCCN(CCCCCCCCCCCN)C(=O)c1ccc(-c2cc3ccc(C(=O)c4cc(CC(=O)NO)c(-c5cccc(O)c5)s4)cc3n2CCCCN)cc1` [Inhibitor E1d], in that order: 340 nM and 68 ± 1%.
Turning to `NCCCCCCCCCOc1c(CCCCCCN)cc(NC(=O)c2cc(CCC(=O)NO)c(CCC(N)(c3ccccc3)c3ccccc3)n2Cc2ccccc2)cc1CCCCCCN` [Inhibitor E6c], at BoNTAe, the inhibition at 1 µM turned out to be 55 ± 2%.
As for `NCCCCCCCN(CCCCCCCN)C(=O)c1cc(CCC(=O)NO)c(CCC(O)(c2ccccc2)c2ccccc2)n1Cc1ccccc1` [Inhibitor E4], the affinity on BoNTAe, expressed as Ki, was 760 nM. Also, at BoNTAe (inhibitor concentration 1 μM), the inhibition at 1 µM is 52 ± 1%.
Take `NCCCCCCCCN(CCCCCCCCN)C(=O)c1ccc(-c2cc3ccc(C(=NO)c4cc(CC(=O)NO)c(-c5cccc(O)c5)s4)cc3n2CCCCN)cc1` [Inhibitor E1h]: the inhibition at 1 µM on BoNTAe is 60 ± 1%.
The compound `NCCCCCCCN(CCCCCCCN)C(=O)c1cc(CCC(=O)NO)c(CCC(CO)(c2ccccc2)c2ccccc2)n1Cc1ccccc1` [Inhibitor E4b, N,N-Bis(7-aminoheptyl)-1-benzyl-5-(4-hydroxy-3,3-diphenylbutyl)-4-(3-(hydroxyamino)-3-oxopropyl)-1H-pyrrole-2-carboxamide] came in with a Ki at BoNTAe of 210 nM. Also, the inhibition at 1 µM at BoNTAe (inhibitor concentration 1 μM) is 79 ± 1%.
With `NCCCCCCCCCCN(CCCCCCCCCCN)C(=O)c1ccc(-c2cc3ccc(C(=O)c4cc(CC(=O)NO)c(-c5cccc(O)c5)s4)cc3n2CCCCN)cc1` [Inhibitor E1c, 4-(1-(4-aminobutyl)-6-(4-(2-(hydroxyamino)-2-oxoethyl)-5-(3-hydroxyphenyl)thiophene-2-carbonyl)-1H-indol-2-yl)-N,N-bis(10-aminodecyl)benzamide], on BoNTAe, the affinity, expressed as Ki, was 260 nM. Besides, the inhibition at 1 µM on BoNTAe (inhibitor concentration 1 μM) was determined as 75 ± 1%.
`NCCCCn1c(-c2ccccc2)c(F)c2ccc(C(=O)c3cc(CC(=O)NO)c(-c4cccc(N)c4)s3)cc21` [Inhibitor E3, 2-(5-(1-(4-aminobutyl)-3-fluoro-2-phenyl-1H-indole-6-carbonyl)-2-(3-aminophenyl)thiophen-3-yl)-N-hydroxyacetamide]: at BoNTAe, testing at 20 µM gave an inhibition of 47 ± 1%. The proportion of survivors result in series [1] is “significantly (p<0.05) increased the proportion of survivors”. In series [2], the AUClast is 1385.93 ng·h/mL, the Cmax was 255.99 ng/mL, the Vd worked out at 12.84 L/kg and the T1/2 was 6.25. Moreover, the Tmax in “in vivo” turned out to be 60 min.
Regarding `O=C(CCc1cc(C(=O)Nc2cc(CCCCCCN3C(=O)c4ccccc4C3=O)c(OCCCCCCN3C(=O)c4ccccc4C3=O)c(CCCCCCN3C(=O)c4ccccc4C3=O)c2)n(Cc2ccccc2)c1C#CC(O)(c1ccccc1)c1ccccc1)NO` [Inhibitor E6, 1-Benzyl-N-(3,5-bis(6-(1,3-dioxoisoindolin-2-yl)hexyl)-4-(6-(1,3-dioxoisoindolin-2-yl)hexyloxy)phenyl)-5-(3-hydroxy-3,3-diphenylprop-1-ynyl)-4-(3-(hydroxyamino)-3-oxopropyl)-1H-pyrrole-2-carboxamide trifluoroacetic acid salt], the inhibition at 1 µM on BoNTAe (inhibitor concentration 1 μM) came to 50 ± 2%.
Still for that read-out and setting: in the case of `O=C(CCc1cc(C(=O)Nc2cc(CCCCCCN3C(=O)c4ccccc4C3=O)c(OCCCCCCCN3C(=O)c4ccccc4C3=O)c(CCCCCCN3C(=O)c4ccccc4C3=O)c2)n(Cc2ccccc2)c1C#CC(O)(c1ccccc1)c1ccccc1)NO` [Inhibitor E6b, 1-Benzyl-N-(3,5-bis(6-(1,3-dioxoisoindolin-2-yl)hexyl)-4-(7-(1,3-dioxoisoindolin-2-yl)heptyloxy)phenyl)-5-(3-hydroxy-3,3-diphenylprop-1-ynyl)-4-(3-(hydroxyamino)-3-oxopropyl)-1H-pyrrole-2-carboxamide trifluoroacetic acid salt] it was 59 ± 2%; in that of `NCCCCCCN(CCCCCCN)C(=O)c1ccc(-c2cc3ccc(C(=NO)c4cc(CC(=O)NO)c(-c5cccc(O)c5)s4)cc3n2CCCCN)cc1` [Inhibitor E1f, 4-(1-(4-aminobutyl)-6-((4-(2-(hydroxyamino)-2-oxoethyl)-5-(3-hydroxyphenyl)thiophen-2-yl)(hydroxyimino)methyl)-1H-indol-2-yl)-N,N-bis(6-aminohexyl)benzamide], 47 ± 1%.
With `NCCCCCN(CCCCCN)C(=O)c1ccc(-c2cc3ccc(C(=NO)c4cc(CC(=O)NO)c(-c5cccc(O)c5)s4)cc3n2CCCCN)cc1` [Inhibitor E1g], the inhibition at 1 µM at BoNTAe came to 48%.
As for `NCCCCn1c(-c2ccccc2)c(F)c2ccc(C(=O)c3cc(CC(=O)NO)c(-c4ccc(O)cc4)s3)cc21` [Inhibitor E2, 2-(5-(1-(4-Aminobutyl)-3-fluoro-2-phenyl-1H-indole-6-carbonyl)-2-(4-hydroxyphenyl)thiophen-3-yl)-N-hydroxyacetamide], on BoNTAe, the inhibition at 20 µM came out at 82 ± 6%. In series [1], the proportion of survivors entry is given as “significantly (p<0.05) increased the proportion of survivors”. For the same compound, in series [2], the AUClast amounted to 1386.4 ng·h/mL, the Cmax is listed as 738.4 ng/mL, the Vd is recorded as 14.95 L/kg and the T1/2 came to 6.5. In “in vivo”, the time to peak (Tmax) worked out at 30 min.
